Test results from ChEMBL document CHEMBL5154862, “Structure-Based Discovery of MDM2/4 Dual Inhibitors that Exert Antitumor Activities against MDM4-Overexpressing Cancer Cells” (J Med Chem, 2022).
The source made the active and inactive calls. The calls are words filed in the database; no cut-off is given here.

What was measured:
HCT-116 [1] = assay: Upregulation of MDM2 protein expression in human HCT-116 cells at 2.5 uM measured after 24 hrs by Western blot analysis; format: functional, cell-based
MCF7 [2] = assay: Upregulation of p21 protein expression in human MCF7 cells at 2.5 uM measured after 24 hrs by Western blot analysis; format: functional, cell-based
RKO [3] = assay: Induction of apoptosis in human RKO cells assessed as early apoptotic cells at 6.25 uM measured after 48 hrs by Annexin V-FITC/PI staining based flow cytometry analysis (reference value: 3.56 %); format: functional
MCF7 [4] = assay: Upregulation of MDM2 protein expression in human MCF7 cells at 2.5 uM measured after 24 hrs by Western blot analysis; format: functional, cell-based
NCI-H460 [5] = assay: Upregulation of MDM2 protein expression in human NCI-H460 cells at 2.5 uM measured after 24 hrs by Western blot analysis; format: functional, cell-based
RKO [6] = assay: Upregulation of PUMA gene expression in human RKO cells incubated for 24 hrs by qPCR analysis; format: functional, cell-based; details: dose 0.3125-2.5 µM, DDE = dose-dependent effect
NCI-H460 [7] = assay: cells; details: Homo sapiens, NCI-H460, 96 h
[8] = Oral bioavailability in ICR mouse at 15 mg/kg measured upto 24 hrs by LC-MS/MS analysis; format: ADME, organism-based; details: in vivo
RKO [9] = assay: Induction of apoptosis in human RKO cells assessed as viable cells at 6.25 uM measured after 48 hrs by Annexin V-FITC/PI staining based flow cytometry analysis (reference value: 93.54 %); format: functional; details: read-out: Activity
RKO [10] = assay: Induction of apoptosis in human RKO cells assessed as early apoptotic cells at 25 uM measured after 48 hrs by Annexin V-FITC/PI staining based flow cytometry analysis (reference value: 3.56 %); format: functional
RKO [11] = assay: Induction of apoptosis in human RKO cells assessed as late apoptotic cells at 25 uM measured after 48 hrs by Annexin V-FITC/PI staining based flow cytometry analysis (reference value: 0.82 %); format: functional
RKO [12] = assay: Upregulation of p53 expression in human RKO cells incubated for 24 hrs by Western blot analysis; format: functional, cell-based; details: dose 0.3125-2.5 µM, DDE = dose-dependent effect
RKO [13] = assay: Induction of cell cycle arrest in human RKO cells assessed as effect on cell cycle distribution incubated for 24 hrs by FACSCalibur flow cytometry analysis; format: functional, cell-based; details: dose 6.25-25 µM, DDE = dose-dependent effect
RKO [14] = assay: Induction of apoptosis in human RKO cells assessed as viable cells at 12.5 uM measured after 48 hrs by Annexin V-FITC/PI staining based flow cytometry analysis (reference value: 93.54 %); format: functional; details: read-out: Activity
HCT-116 [15] = assay: Upregulation of p21 protein expression in human HCT-116 cells at 2.5 uM measured after 24 hrs by Western blot analysis; format: functional, cell-based
U2OS = assay: Upregulation of p21 protein expression in human U2OS cells at 2.5 uM measured after 24 hrs by Western blot analysis; format: functional, cell-based
RKO [16] = assay: Induction of apoptosis in human RKO cells assessed as necrotic cells at 12.5 uM measured after 48 hrs by Annexin V-FITC/PI staining based flow cytometry analysis (reference value: 2.08 %); format: functional
RKO [17] = assay: Upregulation of MDM2 expression in human RKO cells incubated for 24 hrs by Western blot analysis; format: functional, cell-based; details: dose 0.3125-2.5 µM, DDE = dose-dependent effect
SW480 = assay: cells; details: Homo sapiens, SW480, 96 h
RKO [18] = assay: Induction of apoptosis in human RKO cells assessed as viable cells at 25 uM measured after 48 hrs by Annexin V-FITC/PI staining based flow cytometry analysis (reference value: 93.54 %); format: functional; details: read-out: Activity
RKO [19] = assay: Upregulation of MDM2 gene expression in human RKO cells at 0.31 uM incubated for 24 hrs by qPCR analysis; format: functional, cell-based
HCT-116 [20] = assay: Induction of PARP cleavage in human HCT-116 cells incubated for 24 hrs by Western blot analysis; format: functional, cell-based; details: dose 0.078125-2.5 µM, DDE = dose-dependent effect
[21] = Cmax in ICR mouse at 15 mg/kg, po measured upto 24 hrs by LC-MS/MS analysis; format: ADME, organism-based; design: time < 24 hrs, dose 15 mg/kg, route po; details: in vivo
RKO [22] = assay: Downregulation of MDM4 expression in human RKO cells at 0.3125 to 2.5 uM incubated for 24 hrs by Western blot analysis; format: functional, cell-based; details: dose 0.3125-2.5 µM
RKO [23] = assay: Antitumor activity against human RKO cells xenografted in BALB/c mouse assessed as tumor growth inhibition at 100 mg/kg, po bid administered via gavage for 21 consecutive days and measured on day 21 relative to control; format: functional; details: 504 h, time 21 day, read-out: TGI
RKO [24] = assay: Induction of apoptosis in human RKO cells assessed as late apoptotic cells at 12.5 uM measured after 48 hrs by Annexin V-FITC/PI staining based flow cytometry analysis (reference value: 0.82 %); format: functional
RKO [25] = assay: Upregulation of MDM2 gene expression in human RKO cells incubated for 24 hrs by qPCR analysis; format: functional, cell-based; details: dose 0.3125-2.5 µM, DDE = dose-dependent effect
[26] = molecular target: E3 ubiquitin-protein ligase Mdm2 (Homo sapiens, UniProt Q00987); assay: (§1) Displacement of 5-FAM labeled PDI peptide from MDM2 (1 to 118 residues) (unknown origin) expressed in Escherichia coli BL21 (DE3) assessed as inhibition constant incubated for 1.5 hrs by fluorescence polarization competition assay
Chain of E3 ubiquitin-protein ligase Mdm2 (Q00987 whole entry, the tested form may be a part): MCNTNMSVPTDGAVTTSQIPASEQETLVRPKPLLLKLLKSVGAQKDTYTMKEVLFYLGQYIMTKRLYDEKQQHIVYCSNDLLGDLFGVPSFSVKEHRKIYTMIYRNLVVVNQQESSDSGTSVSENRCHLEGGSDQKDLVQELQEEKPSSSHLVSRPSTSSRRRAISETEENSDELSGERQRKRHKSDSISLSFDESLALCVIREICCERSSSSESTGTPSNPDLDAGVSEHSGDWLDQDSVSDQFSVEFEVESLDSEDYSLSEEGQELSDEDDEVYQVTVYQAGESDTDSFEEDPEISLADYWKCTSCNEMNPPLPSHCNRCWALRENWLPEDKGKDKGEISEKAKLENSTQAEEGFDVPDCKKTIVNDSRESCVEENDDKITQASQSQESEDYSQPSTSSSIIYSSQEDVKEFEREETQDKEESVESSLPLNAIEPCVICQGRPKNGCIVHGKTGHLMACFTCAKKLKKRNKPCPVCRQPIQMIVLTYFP

Homo sapiens = organism: Homo sapiens; assay: as §1, with “Potency index, ratio of RG7388 Ki to test compound Ki for displacement” for “Displacement”, “MDM4 C17S mutant (14” for “MDM2 (1”, “111” for “118”
HeLa = assay: cells; details: Homo sapiens, 96 h
[27] = Cytotoxicity against HEK293 cells assessed as cell growth inhibition incubated for 4 days by CCK-8 assay; format: toxicity, cell-based; details: human
RKO [28] = assay: Induction of apoptosis in human RKO cells assessed as necrotic cells at 6.25 uM measured after 48 hrs by Annexin V-FITC/PI staining based flow cytometry analysis (reference value: 2.08 %); format: functional
[29] = AUC in ICR mouse at 15 mg/kg, po measured upto 24 hrs by LC-MS/MS analysis; format: ADME, organism-based; design: time < 24 hrs, dose 15 mg/kg, route po; details: in vivo
RKO [30] = assay: cells; details: Homo sapiens, 96 h
RKO [31] = assay: Induction of apoptosis in human RKO cells assessed as late apoptotic cells at 6.25 uM measured after 48 hrs by Annexin V-FITC/PI staining based flow cytometry analysis (reference value: 0.82 %); format: functional
RKO [32] = assay: Upregulation of p21 gene expression in human RKO cells at 0.31 uM incubated for 24 hrs by qPCR analysis; format: functional, cell-based
RKO [33] = assay: Upregulation of p21 gene expression in human RKO cells incubated for 24 hrs by qPCR analysis; format: functional, cell-based; details: dose 0.3125-2.5 µM, DDE = dose-dependent effect
RKO [34] = assay: Induction of apoptosis in human RKO cells assessed as early apoptotic cells at 12.5 uM measured after 48 hrs by Annexin V-FITC/PI staining based flow cytometry analysis (reference value: 3.56 %); format: functional
[35] = Displacement of 5-FAM labeled PDI peptide from MDM4 C17S mutant (14 to 111 residues) (unknown origin) expressed in Escherichia coli BL21 (DE3) assessed as inhibition constant incubated for 1.5 hrs by fluorescence polarization competition assay; design: species or system Homo sapiens

With `COc1cc(C(=O)O)ccc1NC(=O)[C@@H]1N[C@@H](CC(C)(C)C)[C@](CNCc2ccncc2)(c2ccc(Cl)cc2F)[C@H]1c1cccc(Cl)c1F` the Activity (HCT-116 [1]) was “Active”, the Activity (MCF7 [2]) was “Active” and the Activity (RKO [3]) was 6.28%. For the same compound, the Activity (MCF7 [4]) was “Active”, the Activity (NCI-H460 [5]) was “Active” and the Activity (RKO [6]) was “Dde”. It also gave an IC50 (NCI-H460 [7]) of 460 nM, a bioavailability [8] of 13.5% and a viability at 6.25 µM (RKO [9]) of 74.5%. For the same compound, the Activity (RKO [10]) was 34.16%, the Activity (RKO [11]) was 57.01% and the Activity (RKO [12]) was “Dde”. The Activity (RKO [13]) was “Dde”, the viability at 12.5 µM (RKO [14]) was 85% and the Activity (HCT-116 [15]) was “Active”. The Activity (U2OS) was “Active”, the Activity (RKO [16]) was 1.6% and the Activity (RKO [17]) was “Dde”. For the same compound, the IC50 (SW480) was 2820 nM, the viability at 25 µM (RKO [18]) was 7.52% and the Activity (RKO [19]) was “Active”. The Activity (HCT-116 [20]) was “Dde”, the Cmax [21] was 1080 ng/mL and the Activity (RKO [22]) was “Active”. For the same compound, the inhibition in vivo at 100 mg/kg (RKO [23]) was 18%, the Activity (RKO [24]) was 3.81% and the Activity (RKO [25]) was “Dde”. The Ki [26] was 1.1 nM, the Ratio Ki (Homo sapiens) was 6 and the IC50 (HeLa) was 7370 nM. For the same compound, the IC50 at 4 days [27] was 6250 nM, the Activity (RKO [28]) was 16.09% and the AUC at 24 h [29] was 1990 ng·h/mL. The IC50 (RKO [30]) was 200 nM, the Activity (RKO [31]) was 3.15% and the Activity (RKO [32]) was “Active”. For the same compound, the Activity (RKO [33]) was “Dde”, the Activity (RKO [34]) was 9.54% and the Ki [35] was 643 nM.
